From ChEMBL document CHEMBL1201862, “PubChem BioAssay data set” (2004) come the findings set out here.

Each structure is given as a SMILES string.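 Test compounds were applied to cells in 96-well plates for 48 hours at 5 doses. Abbreviation: GI50, concentration required for 50% inhibition of growth.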 Activity calls are given as the source filed them. No stated cut-off is given here; in the data, active = GI50 up to about 1.1 µM and inactive = higher.

Some test systems named below: NCI-H23; IGROV-1; SNB-78; M14; NCI-H522; HL-60; OVCAR-8; HCC 2998; SK-MEL-5; TK-10; SW-620; NCI-H460; HOP-92; SK-MEL-28; HCT-116; RPMI-8226.
Holding throughout (experiment): NCI anticancer screen, dose series, 48 h

Take `Cc1nc2c(N)ncnc2o1`: the GI50 in the experiment with NCI-H23, in the experiment with IGROV-1, in the experiment on SNB-78, in the experiment with M14, in the experiment with NCI-H522 and with HL-60 was > 100 µM (inactive) each time. The GI50 in the experiment on OVCAR-8, in the experiment on HCC 2998, in the experiment with SK-MEL-5, in the experiment on TK-10, in the experiment with SW-620 and with NCI-H460 was > 100 µM (inactive) in each case. Besides, the GI50 with HOP-92, in the experiment with SK-MEL-28 and with HCT-116 was > 100 µM (inactive) each time.

As for `CN/N=C(\C)CC(=O)Nc1cccc(Cl)c1C`, the GI50 was > 100 µM (inactive) with NCI-H23; > 100 µM (inactive) in the experiment with IGROV-1; > 100 µM (inactive) in the experiment with SNB-78; > 100 µM (inactive) with M14; 38.6 µM (inactive) in the experiment on NCI-H522; > 100 µM (inactive) in the experiment with HL-60. For the same molecule, the GI50 with OVCAR-8, with HCC 2998, in the experiment with RPMI-8226, with SK-MEL-5, in the experiment on TK-10 and in the experiment with NCI-H460 was > 100 µM (inactive) throughout. The GI50 with HOP-92, in the experiment on SK-MEL-28 and in the experiment with HCT-116 was > 100 µM (inactive) throughout.

On to `N#CC(C#N)=c1c2nsnc2c(=C(C#N)C#N)c2nsnc12`, for which the GI50 with NCI-H23 is 2.01 µM (inactive); with SNB-78, 1.74 µM (inactive); in the experiment on M14, 2.07 µM (inactive); in the experiment with NCI-H522, 1.96 µM (inactive); in the experiment on HL-60, 2.27 µM (inactive); in the experiment on OVCAR-8 it was 1.69 µM (inactive). In addition, the GI50 was 1.77 µM (inactive) in the experiment with HCC 2998; 16 µM (inactive) with TK-10; 1.47 µM (inactive) in the experiment on SW-620; 2.08 µM (inactive) with NCI-H460; 1.45 µM (inactive) in the experiment with HOP-92; 1.87 µM (inactive) in the experiment with SK-MEL-28. In the experiment on HCT-116, the GI50 is 1.98 µM (inactive).

Consider `CCCCN(CCCC)CCCn1cnc2ncccc2c1=O`, for which the GI50 with NCI-H23, in the experiment with IGROV-1, in the experiment on SNB-78, in the experiment on M14, with NCI-H522 and in the experiment on OVCAR-8 was > 100 µM (inactive) each time. Further, the GI50 with HCC 2998 was > 100 µM (inactive); in the experiment with SK-MEL-5, 72.6 µM (inactive); with TK-10 it was > 100 µM (inactive); in the experiment with SW-620, > 100 µM (inactive); with NCI-H460, > 100 µM (inactive); in the experiment with HOP-92, > 100 µM (inactive). The GI50 with SK-MEL-28 and with HCT-116 was > 100 µM (inactive) in each case.

On to `Cc1cc(N)c2cc(NC(=O)CCCCCCCCC(=O)Nc3ccc4nc(C)cc(N)c4c3)ccc2n1`, for which the GI50 in the experiment with NCI-H23 was 15.2 µM (inactive); with IGROV-1, > 30.5 µM (inactive); in the experiment with SNB-78, > 100 µM (inactive); in the experiment with M14 it was > 84.9 µM (inactive); in the experiment with NCI-H522 it was 1.98 µM (inactive); with HL-60, 1.54 µM (inactive). Besides, the GI50 is > 100 µM (inactive) in the experiment on OVCAR-8; 10.3 µM (inactive) with HCC 2998; 5.53 µM (inactive) in the experiment on RPMI-8226; 5.58 µM (inactive) with SK-MEL-5; 45.8 µM (inactive) with TK-10; 27.9 µM (inactive) in the experiment with SW-620. The GI50 with NCI-H460 was 2.47 µM (inactive); with HOP-92 it was 33.7 µM (inactive); in the experiment on SK-MEL-28, 42.8 µM (inactive); in the experiment on HCT-116 it was 5.07 µM (inactive).

Regarding `CC(C)C1COC(c2ccc3ccccc3c2-c2c(O[Si](C)(C)C(C)(C)C)ccc3ccccc23)=N1` (stereo unspecified), the GI50 with NCI-H23 was 16.3 µM (inactive); in the experiment on IGROV-1, 20.2 µM (inactive); in the experiment with SNB-78 it was 6.59 µM (inactive); in the experiment on M14, 15.8 µM (inactive); in the experiment with NCI-H522, 15.2 µM (inactive); in the experiment on HL-60 it was 16.1 µM (inactive). In addition, the GI50 was 18 µM (inactive) with OVCAR-8; 15.1 µM (inactive) in the experiment on HCC 2998; 14.7 µM (inactive) in the experiment with RPMI-8226; 16.7 µM (inactive) in the experiment on SK-MEL-5; 17.9 µM (inactive) in the experiment with TK-10; 18.5 µM (inactive) in the experiment with SW-620. The GI50 in the experiment with NCI-H460 was 19.6 µM (inactive); in the experiment on HOP-92, 13.6 µM (inactive); in the experiment on SK-MEL-28 it was 19.1 µM (inactive).

With `COc1c2c(cc3c1C(=O)Cc1ccc4c(c1CN(C)CC3)OCO4)OCO2`, the GI50 is > 100 µM (inactive) with NCI-H23; 18.5 µM (inactive) in the experiment with IGROV-1; > 100 µM (inactive) with SNB-78; 74.3 µM (inactive) in the experiment on M14; > 100 µM (inactive) in the experiment with NCI-H522; 30.1 µM (inactive) in the experiment on HL-60. In addition, the GI50 was > 100 µM (inactive) in the experiment with OVCAR-8; > 100 µM (inactive) in the experiment with HCC 2998; 85.3 µM (inactive) in the experiment on RPMI-8226; 40.3 µM (inactive) in the experiment on SK-MEL-5; > 100 µM (inactive) with TK-10; > 100 µM (inactive) in the experiment on SW-620. Moreover, the GI50 in the experiment with NCI-H460 is 67.3 µM (inactive); in the experiment with HOP-92, 5.71 µM (inactive); with SK-MEL-28, > 100 µM (inactive); in the experiment with HCT-116 it was 52.2 µM (inactive).

For `O=C(CCC(=O)C(C(=O)c1ccccc1)c1ccccc1)Nc1cccc(C(F)(F)F)c1` (stereo unspecified), the GI50 with NCI-H23, with IGROV-1, in the experiment with SNB-78, with M14, in the experiment on NCI-H522 and with HL-60 was > 100 µM (inactive) each time. In addition, the GI50 with OVCAR-8, in the experiment on HCC 2998, in the experiment with RPMI-8226, with TK-10, in the experiment on SW-620 and in the experiment with NCI-H460 was > 100 µM (inactive) throughout. The GI50 in the experiment with HOP-92 and in the experiment with HCT-116 was > 100 µM (inactive) in each case.

As for `C=CCN1CCC23c4c5ccc(O)c4OC2C(=NN=C2CCC4(O)C6Cc7ccc(O)c8c7C4(CCN6CC=C)C2O8)CCC3(O)C1C5` (stereo unspecified), the GI50 in the experiment on NCI-H23 was > 100 µM (inactive); with IGROV-1, > 100 µM (inactive); in the experiment with SNB-78, 27.2 µM (inactive); in the experiment on M14 it was 17.8 µM (inactive); in the experiment with NCI-H522, 31 µM (inactive); in the experiment with HL-60 it was > 10 µM (inactive). For the same molecule, the GI50 was 25.6 µM (inactive) in the experiment with OVCAR-8; 21.3 µM (inactive) in the experiment on HCC 2998; 39.2 µM (inactive) in the experiment on RPMI-8226; 20.4 µM (inactive) in the experiment on SK-MEL-5; 21.6 µM (inactive) in the experiment on TK-10; 21.4 µM (inactive) in the experiment with SW-620. Besides, the values for the GI50 with NCI-H460, with HOP-92 and with SK-MEL-28 were 20.5 µM (inactive), 17.6 µM (inactive) and 17.3 µM (inactive), respectively.

`CC(=O)Nc1ccc(OCC(O)CO)cc1` (stereo unspecified): the GI50 with NCI-H23, in the experiment with IGROV-1, in the experiment on SNB-78, in the experiment with M14, in the experiment with NCI-H522 and in the experiment on OVCAR-8 was > 100 µM (inactive) in each case. Moreover, the GI50 is > 100 µM (inactive) in the experiment on HCC 2998; 21.2 µM (inactive) in the experiment with RPMI-8226; > 100 µM (inactive) in the experiment on SK-MEL-5; > 100 µM (inactive) in the experiment with TK-10; 8.3 µM (inactive) with SW-620; > 100 µM (inactive) in the experiment on NCI-H460. Further, the GI50 in the experiment with HOP-92, in the experiment on SK-MEL-28 and in the experiment with HCT-116 was > 100 µM (inactive) in each case.

With `CCOC(=O)C1N(S(=O)(=O)c2ccc(C)cc2)CCC12c1ccccc1N(C(C)=O)C2c1ccc(OC)c(OC)c1` (stereo unspecified), the GI50 was > 100 µM (inactive) in the experiment on NCI-H23; > 100 µM (inactive) in the experiment with IGROV-1; > 100 µM (inactive) with SNB-78; > 100 µM (inactive) in the experiment with M14; > 100 µM (inactive) with NCI-H522; 48.1 µM (inactive) in the experiment on HL-60. For the same molecule, the GI50 is > 100 µM (inactive) with OVCAR-8; > 100 µM (inactive) in the experiment with HCC 2998; 65.5 µM (inactive) in the experiment with RPMI-8226; > 100 µM (inactive) in the experiment on SK-MEL-5; > 100 µM (inactive) in the experiment with TK-10; > 100 µM (inactive) in the experiment with SW-620. Further, the GI50 is > 100 µM (inactive) with NCI-H460, 47.8 µM (inactive) in the experiment on HOP-92, > 100 µM (inactive) in the experiment on SK-MEL-28 and 47.4 µM (inactive) in the experiment with HCT-116.

For the molecule `CC(=O)/C=C/c1ccc(C2CC(C)=Nc3c(ccc4c3C(=O)c3ccccc3C4=O)N2)cc1` (stereo unspecified), the GI50 with NCI-H23 is > 67.3 µM (inactive); in the experiment with IGROV-1 it was 9.12 µM (inactive); with SNB-78, > 100 µM (inactive); in the experiment with M14 it was 77.3 µM (inactive); with NCI-H522, > 20 µM (inactive); with HL-60, 0.944 µM (active). Also, the GI50 with OVCAR-8 is 28.2 µM (inactive); with HCC 2998, > 100 µM (inactive); in the experiment on RPMI-8226 it was > 52.4 µM (inactive); in the experiment with SK-MEL-5, 86.5 µM (inactive); in the experiment with TK-10, 8.89 µM (inactive); in the experiment with SW-620 it was 38.5 µM (inactive). Moreover, the GI50 is 30 µM (inactive) with NCI-H460, 28.2 µM (inactive) in the experiment with HOP-92, > 100 µM (inactive) in the experiment on SK-MEL-28 and 33 µM (inactive) in the experiment with HCT-116.

For the molecule `COC(=O)C(Cc1c[nH]c2ccccc12)NC(=O)C(Cc1c[nH]c2ccccc12)NC(=O)OCc1ccccc1` (stereo unspecified), the GI50 is 17.3 µM (inactive) in the experiment with NCI-H23; 19.3 µM (inactive) in the experiment with IGROV-1; 25.8 µM (inactive) in the experiment on SNB-78; 18.2 µM (inactive) with M14; 16.3 µM (inactive) in the experiment with NCI-H522; 20.8 µM (inactive) with HL-60. Moreover, the GI50 in the experiment on OVCAR-8 was 17.9 µM (inactive); in the experiment with HCC 2998 it was 17.8 µM (inactive); in the experiment on RPMI-8226 it was 11.7 µM (inactive); with SK-MEL-5, 29.5 µM (inactive); with TK-10, 22.8 µM (inactive); with SW-620, 17.5 µM (inactive). For the same molecule, the GI50 in the experiment on NCI-H460 is 18.1 µM (inactive); with HOP-92, 20 µM (inactive); with SK-MEL-28, 17.7 µM (inactive); in the experiment with HCT-116, 17.9 µM (inactive).
